Measured values published in patent US20070265451A1, “Process for the preparation of oxazolidinones and method of use thereof” (Board of Trustees of Michigan State University, priority 2001, published 2007).
≈ marks a conversion by molar mass, not a printed value. Where two headings read alike, the source gives them in different places.

How the values were obtained:
Assay type in all cases: cell-based
[1] = test system: Staphylococcus aureus NRS103 (Becker); assay: Broth microdilution MIC, Ref SA Becker; conditions: strain Becker, read-out: MIC90-100 Ref SA Becker
Description: (§1) See, NCCLS document M7-A5. Methods for Dilution Antimicrobial Susceptibility Tests for Bacteria That Grow Aerobically; Approved Standard-Fifth Edition. Volume 20, Number 2. January 2000, (ISBN 1-56238-394-9) and Lorian V. Antibiotics. Laboratory Medicine. 4th ed. Baltimore: Williams and Wilkins, pp. 52-111 (1996). For subsequent testing, the following strains have been used: Staphylococcus aureus NRS4 (992; HIP5836; New Jersey) (Smith et al., New Engl. J. Med. 340: 493-501 (1999); Tenover et al., J. Clin. Microbiol. 36: 1020-1027 (1998)), Staphylococcus aureus NRS3 (963sm; HIP5827; Michigan) (Smith et al., ibid.; Tenover et al., ibid.), Staphylococcus aureus NRS103 (Becker) (Karakawa and Vann, Sem. Infect. Dis. 4: 285 (1982), Staphylococcus aureus NRS102 (Reynolds) Karakawa and Vann, ibid; McMurray et al., JID 162: 759-762 (1990)), Staphylococcus epidermidis NRS101 (ATCC 35984), Streptococcus pneumoniae (ATCC 49619), Enterococcus faecalis (ATCC 51299), and Staphylococcus aureus (ATCC 43300.
(§2) Stock cultures of these strains were obtained by seeding colonies from overnight streak plates (Tryptic Soy Agar II (TSAII) and 5% sheep's blood (SB) agar plates: Becton Dickinson, CA#2211261) into sterile Mueller-Hinton Broth (MHB)(Becton Dickinson, CA#211443) and growing the suspensions to mid-late log phase in 13 mL screw-cap tubes. Glycerol (Sigma, CA#G-6279) was sterilized by autoclaving for 15 minutes at 121° C. in 6 mL volumes, and then stored at 2-8° C. This was diluted to 20% in dH2O, and then added 1:1 (250 μL:250 μL, 10% final glycerol concentration) to the logarithmically growing bacterial suspension of each strain. Tubes were frozen and stored at −70° C. Purity of the stock cultures was tested by thawing one tube of each strain in a water bath at 37° C. and plating them on TSAII with 5% SB. Plates were incubated overnight at 37° C. and colonies were examined for morphology. Growth curves and approximate CFU/mL were also obtained.
(§3) High purity substituted oxazolidinones prepared according to the method of the present invention and a ZYVOX standard (ZYVOX is a trade name for linezolid available from Pharmacia Corporation) were provided by Synthon Corporation, Monmouth Junction, N.J. Compounds were dissolved at 10 mg/mL in DMSO, as after a dilution of approx. 39.0 to reach the desired final starting concentration of 256 ug/ml, the concentration of DMSO is approximately 2.5%. Compounds were then stored at room temperature (25° C.) in the dark.
(§4) Antimicrobial susceptibility screening was as follows. All compounds were initially screened for activity in duplicate at 256 μg/mL (2.5% DMSO), including ZYVOX, the positive control for antimicrobial activity. A single well of bacterially inoculated 2.5% DMSO served as a positive control for bacterial growth, while a well of DMSO inoculated with of 50 μL of sterile 0.9% saline served as a negative growth control. Controls were prepared on every microplate, so that 46 was the maximum number of compounds that were screened per plate. Broth was pipetted into sterile microcentrifuge tubes, to which the compounds were then added (1:19.53 dilution or 2× final concentration). Each tube was vortexed, and 50 μL was immediately transferred to the microplate wells for each strain. Solubility was assessed by visual observation. MB (medium broth solubility) was recorded if the solution appeared only slightly cloudy. LB (low broth solubility) was recorded if the solution was extremely cloudy, and especially if larger, clumpy precipitates formed. Bacteria were grown as described above, although absorbance was measured at 650 nm and bacteria were diluted to an initial OD of 0.12-0.15. Bacteria were then further diluted 1:100 with 0.9% sterile saline. Within 15 minutes of this final dilution, 50 μL of this suspension was added to each well for a final volume of […], and a final bacterial concentration of 1×10^5 CFU/mL (except for the negative control well). Plates were grown as above and all observations were recorded. […]

[2] = test system: Enterococcus faecalis 29212; assay: Broth microdilution MIC, Enterococcus faecalis ATCC 29212; conditions: for MIC / MIC90: Enterococcus faecalis; for MIC: ATCC29212, Table 2, read-out: MIC(90-100) EF-ATCC 29212; for MIC90: ATCC29213, Table 1, read-out: MIC90-100 EF ATCC 29213; for MIC90 / MIC90-100 EF ATCC 29213: EF, strain printed ATCC 29213; for MIC90-100 EF ATCC 29213: Table 1
[3] = test system: Staphylococcus aureus 29213; assay: Broth microdilution MIC, Staphylococcus aureus ATCC 29213; conditions: for MIC90 / MIC: Staphylococcus aureus; for MIC90: ATCC29212, Table 1, read-out: MIC90-100 SA ATCC 29212; for MIC: ATCC29213, Table 2, read-out: MIC(90-100) SA-ATCC 29213
Description: as §1, §2, §3, §4

[4] = test system: Staphylococcus aureus (ATCC 43300); assay: Broth microdilution MIC, MR SA ATCC 43300; conditions: ATCC43300, methicillin resistant SA, read-out: MIC90-100 MR SA ATCC 43300
Description: as §1, §2, §3, §4

[5] = test system: Staphylococcus aureus NRS4 (992; HIP5836; New Jersey); assay: Broth microdilution MIC, MR SA New Jersey; conditions: strain New Jersey; for MIC90: Staphylococcus aureus, NRS4, methicillin resistant SA, read-out: MIC90-100 MR SA New Jersey; for MIC90-100 MR SA New Jersey: methicillin resistant SA
Description: as §1, §2, §3, §4

[6] = test system: Staphylococcus aureus NRS3 (963sm; HIP5827; Michigan); assay: Broth microdilution MIC, MR SA Michigan; conditions: strain Michigan; for MIC90: Staphylococcus aureus, NRS3, methicillin resistant SA, read-out: MIC90-100 MR SA Michigan; for MIC90-100 MR SA Michigan: methicillin resistant SA
Description: as §1, §2, §3, §4

[7] = test system: Staphylococcus aureus NRS102 (Reynolds); assay: Broth microdilution MIC, Pen. R SA Reynolds; conditions: strain Reynolds, read-out: MIC90-100 Pen. R SA Reynolds
Description: as §1, §2, §3, §4

[8] = test system: Enterococcus faecalis (ATCC 51299); assay: Broth microdilution MIC, Enterococcus faecalis ATCC 51299
Description: as §1, §2, §3, §4

[9] = test system: Megakaryocytic bone marrow cells; assay: Bone marrow cell growth inhibition, megakaryocytic
Description: (§5) In general, many of the substituted oxazolidinones were as effective as ZYVOX.

[10] = test system: Erythroid bone marrow cells; assay: Bone marrow cell growth inhibition, erythroid
Description: as §5

[11] = test system: Myeloid bone marrow cells; assay: Bone marrow cell growth inhibition, myeloid
Description: as §5

[12] = ATCC51299, read-out: MIC90-100 VS EF ATCC 51299
[13] = ATCC51299, vancomycin sensitive EF, ATCC 51299, read-out: MIC90-100 VS EF ATCC 51299

Row | SMILES | MIC90 [1] [µg/mL] | MIC90 [2] [µg/mL] | MIC90 ([3]; SA, strain ATCC 29212) [µg/mL] | MIC90 [7] [µg/mL] | IC50 [9] [µg/mL] | IC50 [10] [µg/mL] | IC50 [11] [µg/mL] | MIC90 [8, 13] [µg/mL] | MIC90-100 EF ATCC 29213 [2] [µg/mL] | MIC90-100 MR SA New Jersey [5] [µg/mL] | MIC90-100 MR SA Michigan [6] [µg/mL] | MIC90-100 SA ATCC 29212 ([3]; Table 1, SA, strain ATCC 29212) [µg/mL] | MIC [2] [µg/mL] | MIC [3] [µg/mL] | MIC90 [4] [µg/mL] | MIC90 [5] [µg/mL] | MIC90 [6] [µg/mL] | MIC90 [8, 12] [µg/mL]
1 | O=C(OC[C@H]1CN(c2ccc([N+](=O)[O-])cc2)C(=O)O1)Oc1ccc([N+](=O)[O-])cc1 [Compound 1809] | 4 (≈ 9.92 µM) | 4 (≈ 9.92 µM) | 4 to 8 (≈ 9.92 to 19.8 µM) | 8 (≈ 19.8 µM) |  |  |  |  |  |  |  |  | 4 (≈ 9.92 µM) | 8 (≈ 19.8 µM) | 4 (≈ 9.92 µM) | 3 (≈ 7.44 µM) | 3 (≈ 7.44 µM) | 2 (≈ 4.96 µM)
2 | O=C1O[C@H](CNSc2ccc([N+](=O)[O-])cc2)CN1c1ccc([N+](=O)[O-])cc1 [Compound 2278] | 8 (≈ 20.5 µM) | 2 (≈ 5.12 µM) | 4 (≈ 10.2 µM) | 8 (≈ 20.5 µM) |  |  |  |  |  |  |  |  |  |  |  | 4 (≈ 10.2 µM) | 4 (≈ 10.2 µM) | 
3 | O=C1O[C@@H](COSc2ccc([N+](=O)[O-])cc2)CN1c1ccc([N+](=O)[O-])cc1 [Compound 1808] | 16 (≈ 40.9 µM) | 2 (≈ 5.11 µM) | 4 to 8 (≈ 10.2 to 20.4 µM) | 16 (≈ 40.9 µM) |  |  |  |  |  |  |  |  | 2 (≈ 5.11 µM) | 8 (≈ 20.4 µM) | 8 (≈ 20.4 µM) | 4 (≈ 10.2 µM) | 3 (≈ 7.67 µM) | 2 (≈ 5.11 µM)
4 | COc1ccc(C(=O)CN2C[C@@H](COS(=O)(=O)c3ccc(Cl)c4nonc34)OC2=O)cc1 [Compound 207] |  | 250 (≈ 519 µM) | 64 to 125 (≈ 133 to 259 µM) |  | 3 (≈ 6.23 µM) | 0.2 (≈ 0.415 µM) | 0.8 (≈ 1.66 µM) |  |  |  |  |  |  |  |  |  |  | 

Continued, in another order:

Row | MIC90 [1] [µg/mL] | MIC90 [2] [µg/mL] | MIC90 ([3]; SA, strain ATCC 29212) [µg/mL] | MIC90 [7] [µg/mL] | IC50 [9] [µg/mL] | IC50 [10] [µg/mL] | IC50 [11] [µg/mL] | MIC90 [8, 13] [µg/mL] | MIC90-100 EF ATCC 29213 [2] [µg/mL] | MIC90-100 MR SA New Jersey [5] [µg/mL] | MIC90-100 MR SA Michigan [6] [µg/mL] | MIC90-100 SA ATCC 29212 ([3]; Table 1, SA, strain ATCC 29212) [µg/mL] | SMILES | MIC [2] [µg/mL] | MIC [3] [µg/mL] | MIC90 [4] [µg/mL] | MIC90 [5] [µg/mL] | MIC90 [6] [µg/mL] | MIC90 [8, 12] [µg/mL]
5 | 1 (≈ 2.96 µM) | 2 (≈ 5.93 µM) | 2 (≈ 5.93 µM) | 1 (≈ 2.96 µM) | 4 (≈ 11.9 µM) | 0.08 (≈ 0.237 µM) | 20 (≈ 59.3 µM) | 0.5 (≈ 1.48 µM) |  |  |  |  | CC(=O)NC[C@H]1CN(c2ccc(N3CCOCC3)c(F)c2)C(=O)O1 [ZYVOX, linezolid, reference compound] |  |  | 1 (≈ 2.96 µM) | 2 (≈ 5.93 µM) | 2 (≈ 5.93 µM) | 
6 | 4 (≈ 12.1 µM) |  | 2 (≈ 6.05 µM) | 8 (≈ 24.2 µM) |  |  |  |  | 2 (≈ 6.05 µM) | 4 (≈ 12.1 µM) | 2 (≈ 6.05 µM) |  | CCN1C[C@@H](COS(=O)(=O)c2ccc([N+](=O)[O-])cc2)OC1=O [Compound 2405] |  |  |  |  |  | 
7 | 16 (≈ 51.4 µM) | 4 (≈ 12.8 µM) | 4 (≈ 12.8 µM) | 32 (≈ 103 µM) |  |  |  |  |  |  |  |  | CC(C)N1C[C@H](CNSc2ccc([N+](=O)[O-])cc2)OC1=O [Compound 2428] |  |  |  | 4 to 8 (≈ 12.8 to 25.7 µM) | 4 to 8 (≈ 12.8 to 25.7 µM) | 
8 | 3 (≈ 10.6 µM) | 2 (≈ 7.06 µM) | 2 (≈ 7.06 µM) | 3 (≈ 10.6 µM) | 6 (≈ 21.2 µM) | 0.01 (≈ 0.0353 µM) | 20 (≈ 70.6 µM) |  |  |  |  |  | CN1C[C@@H](CNSc2ccc([N+](=O)[O-])cc2)OC1=O [Compound 1687] |  |  |  | 2 (≈ 7.06 µM) | 2 (≈ 7.06 µM) | 
9 |  |  |  |  | 0.6 (≈ 1.82 µM) | 0.05 (≈ 0.151 µM) | 5 (≈ 15.1 µM) | > 256 | 250 (≈ 757 µM) | 256 (≈ 775 µM) | 256 (≈ 775 µM) | 4 to 8 | CCN1C[C@@H](COS(=O)(=O)c2ccc([N+](=O)[O-])cc2)OC1=O [Compound 1192] |  | 8 (≈ 24.2 µM) | 128 (≈ 388 µM) |  |  | 
